“Also recorded” adds a separate entry of the source.
Assays:
[1] = pH stability of brincidofovir stock solutions (50 μg/mL, 50 mM phosphate pH 6.0-8.0, 20% methanol); assay type: physicochemical
Protocol: Brincidofovir sample stock solutions (50 μg/mL) were prepared in 50 mM phosphate buffer at pH 6.0-8.0 containing 20% methanol. The samples were aliquoted and stored at two temperatures (T=2-8° C. and T=40° C.), and monitored for pH and recovery of brincidofovir at multiple time points over the course of two weeks. Under both conditions, the samples maintained the pH level throughout the time course of the experiment.
The decrease may be related to the observed precipitation. Variation for pH 7.0 is observed for t>8 days. One impurity (RT=4.7 min) was detected that exceeded the set total peak area threshold that was applied for peak integration. The percent of the total peak area was below 0.4% for samples at pH 6 and 6.5, and below 0.1% for samples at higher pH.
For the samples at lower pH, a peak associated with the deamination product of brincidofovir, was observed, encompassing an area % of 1.91 at pH 6.0, and 0.58 at pH 6.5. The degradants peak is not observed at neutral pH and above.

human whole blood = assay: Hemolytic potential, cyanmethemoglobin method, human whole blood; assay type: cell-based; conditions: for Mean HgB Concentration: interference control, Phase 2
Protocol: Each concentration of test item for the rat was mixed separately in a 1:4 ratio with rat whole blood while each concentration of test item for the human was mixed separately in a 1:4 ratio with human whole blood. These samples plus control samples [vehicle control (vehicle+whole blood, 1 for rat and 1 for humans), positive control (1% Saponin+whole blood), untreated whole blood control and negative control (saline+whole blood) were analyzed for hemolysis (supernatant hemoglobin concentration).
(§1) The rat and human whole blood samples were incubated in test or control items at 37±1° C. for 20 minutes and then immediately (within 2 minutes) centrifuged at 3500±100 rpm (2740 g) at room temperature for 5-10 minutes. The supernatant was extracted and subjected to a hemoglobin analysis using the cyanmethemoglobin method employed on the Siemens Advia 120 hematology analyzer. If the test item has a potential for causing hemolysis, then hemoglobin released from lysed red blood cells into the plasma supernatant can be quantified via the reaction of heme iron in solution being oxidized from a ferrous to a ferric state in the presence of potassium cyanide. The reaction results in the formation of methemoglobin, which then combines with cyanide to form a stable cyanmethemoglobin. When measured spectrophotometrically at 546 nm the absorbance of cyanmethemoglobin follows Beer's Law and is directly proportional to the concentration of hemoglobin released into solution.
as §1, with “Without wishing to be bound by theory, if” for “If”

[2] = Stability and confirmation analysis of stock and dose formulations; assay type: physicochemical
Protocol: Brincidofovir injectable liquid stock formulation was prepared to 15 mg/mL brincidofovir, compounded from stock solutions inclusive of three (3) steps: (1) 2× sodium phosphate buffer solution (400 mM, pH=8.0) was prepared; (2) 1.0 N sodium hydroxide solution was purchased; brincidofovir injectable liquid stock formulation (15 mg/mL brincidofovir, 200 mM sodium phosphate, pH=8.0) from solid brincidofovir, 1.0 N sodium hydroxide solution, 2× sodium phosphate buffer solution and WFI (water for injection) was prepared.
The brincidofovir injectable liquid stock formulation is stable for 28 days under refrigerated conditions (2 to 8° C.). Brincidofovir injectable liquid stock formulation was diluted with 5% dextrose to yield the desired dose concentration.
The brincidofovir stock solution of 15.0 mg/mL was stable for 24 hours when stored at room temperature (nominally 20° C.) and for 8, 14 and 28 days when stored at 2 to 8° C.
Two samples (5 mL each) were taken on the day of preparation from the middle region of each dosing formulation (including control) prepared for each week. One sample was analyzed, in duplicate, for dose confirmation analysis and one sample was retained refrigerated (2 to 8° C.) (Due to initial results outside the study acceptance plan criteria (±10% of nominal), the Group 2 retained samples were re-analyzed for Weeks 1 and 2).
Analysis of preliminary mixes confirmed that the test item was stable in the vehicle for at least 24 hours at room temperature (nominally 20° C.) and for at least 8 days at 2 to 8° C. (under storage conditions used in this study). Analyses conducted during the treatment period confirmed that with the exception of the Day 1, 1 mg/mL (Group 2) formulation, dose solutions of appropriate concentration were administered. The Day 1, 1 mg/mL dose solution was 86.7% of nominal. Without wishing to be bound by theory, it was concluded that due to interactions at the meniscus, the volume collected for dose formulation analysis may have lowered the analysis results. The volume collected for analysis was increased for subsequent weekly preparations and confirmed to be of appropriate concentration.

In the case of CCCCCCCCCCCCCCCCOCCCOP(=O)(O)CO[C@H](CO)Cn1ccc(N)nc1=O [Brincidofovir], the “Impurity (RT=4.7 min), percent of total peak area” value ([1]; 2-8 °C, higher pH) is reported as “below 0.1%”, the “Time at which precipitation was observed” value ([1]; 2-8 °C, pH 6.0) is reported as 2 days and the “Impurity (RT=4.7 min), percent of total peak area” value ([1]; 2-8 °C, pH 6 and 6.5) is reported as “below 0.4%”. For the same compound, the “Time at which precipitation was observed” value ([1]; 2-8 °C, pH 6.5) was 2 days, the “Time at which precipitation was observed” value ([1]; 2-8 °C, pH 7.0) was 4 days and the Appearance ([1]; 2-8 °C, pH 7.5 and pH 8.0, two weeks) was “no observable change in appearance”. The Appearance ([1]; 40 °C, any pH) was “no physical change in appearance”, the “Deamination product peak area %” value ([1]; 40 °C, pH 6.0) was 1.91% and the “Deamination product peak area %” value ([1]; 40 °C, pH 6.5) was 0.58%. The “Hemocompatibility / hemolytic potential” value (human whole blood; 0.2, 0.5 and 1.6 mg/mL) was “no hemolytic potential in human whole blood; also recorded: no effect from brincidofovir on hemocompatibility”, the “Mean HgB Concentration” value (human whole blood; Tube 2A: Test Item (0.2 mg/mL) + saline) was 0.0 g/dL and the “Mean HgB Concentration” value (human whole blood; Tube 2B: Test Item (0.5 mg/mL) + saline) was 0.0 g/dL. The “Mean HgB Concentration” value (human whole blood; Tube 2C: Test Item (1.6 mg/mL) + saline) was 0.0 g/dL, the “Stable for (refrigerated)” value ([2]; 0.05 mg/mL and 2.0 mg/mL, 2 to 8 °C) was “at least 8 days” and the “Stable for (room temperature)” value ([2]; 0.05 mg/mL and 2.0 mg/mL, room temperature) was “at least 24 hours”. For the same compound, the “ANALYTICAL CONCENTRATION (% of Nominal)” value ([2]; dose formulation Day 1, Group 2, nominal 1 (ppm) OR (mg/mL)) was 86.7 % of Nominal, the “ANALYTICAL CONCENTRATION (% of Nominal)” value ([2]; dose formulation Day 1, Group 2 Back-up, nominal 1 (ppm) OR (mg/mL)) was 76.9 % of Nominal and the “ANALYTICAL CONCENTRATION (% of Nominal)” value ([2]; dose formulation Day 1, Group 2 Repeat Preparation, nominal 1 (ppm) OR (mg/mL)) was 75.5 % of Nominal. The “ANALYTICAL CONCENTRATION (% of Nominal)” value ([2]; dose formulation Day 1, Group 3, nominal 4 (ppm) OR (mg/mL)) was 95.7 % of Nominal, the “ANALYTICAL CONCENTRATION (% of Nominal)” value ([2]; dose formulation Day 1, Group 4, nominal 15 (ppm) OR (mg/mL)) was 100.7 % of Nominal and the “ANALYTICAL CONCENTRATION (% of Nominal)” value ([2]; dose formulation Week 2, Group 2, nominal 1 (ppm) OR (mg/mL)) was 90.1 % of Nominal. The “ANALYTICAL CONCENTRATION (% of Nominal)” value ([2]; dose formulation Week 2, Group 2 Back-up, nominal 1 (ppm) OR (mg/mL)) was 86.8 % of Nominal, the “ANALYTICAL CONCENTRATION (% of Nominal)” value ([2]; dose formulation Week 2, Group 3, nominal 4 (ppm) OR (mg/mL)) was 95.4 % of Nominal and the “ANALYTICAL CONCENTRATION (% of Nominal)” value ([2]; dose formulation Week 2, Group 4, nominal 15 (ppm) OR (mg/mL)) was 102.9 % of Nominal. The “ANALYTICAL CONCENTRATION (% of Nominal)” value ([2]; dose formulation Week 3, Group 2, nominal 1 (ppm) OR (mg/mL)) was 93.2 % of Nominal, the “ANALYTICAL CONCENTRATION (% of Nominal)” value ([2]; dose formulation Week 3, Group 3, nominal 4 (ppm) OR (mg/mL)) was 94.8 % of Nominal and the “ANALYTICAL CONCENTRATION (% of Nominal)” value ([2]; dose formulation Week 3, Group 4, nominal 15 (ppm) OR (mg/mL)) was 100.2 % of Nominal. The “ANALYTICAL CONCENTRATION (% of Nominal)” value ([2]; dose formulation Week 4, Group 2, nominal 1 (ppm) OR (mg/mL)) was 92.8 % of Nominal, the “ANALYTICAL CONCENTRATION (% of Nominal)” value ([2]; dose formulation Week 4, Group 3, nominal 4 (ppm) OR (mg/mL)) was 96.9 % of Nominal and the “ANALYTICAL CONCENTRATION (% of Nominal)” value ([2]; dose formulation Week 4, Group 4, nominal 15 (ppm) OR (mg/mL)) was 101.0 % of Nominal. The “ANALYTICAL CONCENTRATION (% of Nominal)” value ([2]; dose formulation Week 5, Group 2, nominal 1 (ppm) OR (mg/mL)) was 94.9 % of Nominal, the “ANALYTICAL CONCENTRATION (% of Nominal)” value ([2]; dose formulation Week 5, Group 3, nominal 4 (ppm) OR (mg/mL)) was 97.7 % of Nominal and the “ANALYTICAL CONCENTRATION (% of Nominal)” value ([2]; dose formulation Week 5, Group 4, nominal 15 (ppm) OR (mg/mL)) was 101.1 % of Nominal.
